ChEMBL document CHEMBL5715954, “Silencing c-Myc translation as a therapeutic strategy through targeting PI3Kδ and CK1ε in hematological malignancies” (Blood, 2017)

Tests used:
Design in all cases: scale not given: the % may be the effect or the level left
[1] = target: T1, Ephrin type-A receptor 3 (Homo sapiens) (UniProt P29320); assay: Inhibition of human EPHA3 assessed as enzyme activity at 1 uM using poly[Glu:Tyr] (4:1) as substrate preincubated for 20 mins followed by [gamma-33P]-ATP addition and measured after 120 mins by radiometric Hot-SpotSM Kinase assay relative to control
T1 sequence (whole entry): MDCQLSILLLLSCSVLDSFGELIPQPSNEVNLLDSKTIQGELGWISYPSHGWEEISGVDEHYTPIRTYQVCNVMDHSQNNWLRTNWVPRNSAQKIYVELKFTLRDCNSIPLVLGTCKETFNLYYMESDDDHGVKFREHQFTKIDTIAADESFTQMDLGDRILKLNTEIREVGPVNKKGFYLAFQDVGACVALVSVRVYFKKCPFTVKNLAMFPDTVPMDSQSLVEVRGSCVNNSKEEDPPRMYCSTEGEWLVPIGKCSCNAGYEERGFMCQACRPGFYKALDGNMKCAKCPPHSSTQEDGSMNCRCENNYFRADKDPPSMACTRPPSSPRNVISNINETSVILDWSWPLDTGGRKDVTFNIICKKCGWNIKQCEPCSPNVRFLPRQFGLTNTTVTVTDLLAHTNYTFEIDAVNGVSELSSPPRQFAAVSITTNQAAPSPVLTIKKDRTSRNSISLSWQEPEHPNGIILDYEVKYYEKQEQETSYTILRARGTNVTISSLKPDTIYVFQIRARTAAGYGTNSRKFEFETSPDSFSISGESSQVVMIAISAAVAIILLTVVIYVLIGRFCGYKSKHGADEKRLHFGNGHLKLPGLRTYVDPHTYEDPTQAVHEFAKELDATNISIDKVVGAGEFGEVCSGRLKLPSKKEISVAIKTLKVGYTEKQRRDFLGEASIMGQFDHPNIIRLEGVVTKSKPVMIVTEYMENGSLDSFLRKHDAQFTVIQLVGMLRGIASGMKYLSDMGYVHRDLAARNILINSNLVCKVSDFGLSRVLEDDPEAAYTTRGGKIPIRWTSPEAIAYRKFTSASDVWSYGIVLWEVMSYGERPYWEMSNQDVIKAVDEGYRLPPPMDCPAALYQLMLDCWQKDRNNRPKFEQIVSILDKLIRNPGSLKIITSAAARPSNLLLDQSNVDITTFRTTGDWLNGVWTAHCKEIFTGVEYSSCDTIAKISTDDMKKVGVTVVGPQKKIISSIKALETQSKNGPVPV

[2] = target: Fibroblast growth factor receptor 2 (Homo sapiens) (UniProt P21802); assay: Inhibition of human FGFR2 assessed as enzyme activity at 1 uM using poly[Glu:Tyr] (4:1) as substrate preincubated for 20 mins followed by [gamma-33P]-ATP addition and measured after 120 mins by radiometric Hot-SpotSM Kinase assay relative to control
[3] = target: T2, Testis-specific serine/threonine-protein kinase 1 (Homo sapiens) (UniProt Q9BXA7); assay: Inhibition of human STK22D assessed as enzyme activity at 1 uM using KKKVSRSGLYRSPSMPENLNRPR as substrate preincubated for 20 mins followed by [gamma-33P]-ATP addition and measured after 120 mins by radiometric Hot-SpotSM Kinase assay relative to control
T2 sequence (whole entry): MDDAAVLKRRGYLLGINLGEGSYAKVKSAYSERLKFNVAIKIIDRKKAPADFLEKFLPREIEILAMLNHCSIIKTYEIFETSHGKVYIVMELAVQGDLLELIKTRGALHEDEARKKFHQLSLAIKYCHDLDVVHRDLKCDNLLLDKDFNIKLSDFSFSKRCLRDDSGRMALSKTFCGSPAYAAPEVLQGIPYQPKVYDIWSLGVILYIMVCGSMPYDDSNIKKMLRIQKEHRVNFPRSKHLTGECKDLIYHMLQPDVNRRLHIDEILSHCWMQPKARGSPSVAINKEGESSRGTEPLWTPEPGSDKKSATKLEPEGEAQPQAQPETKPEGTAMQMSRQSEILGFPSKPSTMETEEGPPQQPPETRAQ

[4] = target: T3, Serine/threonine-protein kinase TAO2 (Homo sapiens) (UniProt Q9UL54); assay: Inhibition of human TAOK2 assessed as enzyme activity at 1 uM using myelin basic protein as substrate preincubated for 20 mins followed by [gamma-33P]-ATP addition and measured after 120 mins by radiometric Hot-SpotSM Kinase assay relative to control
T3 sequence (whole entry): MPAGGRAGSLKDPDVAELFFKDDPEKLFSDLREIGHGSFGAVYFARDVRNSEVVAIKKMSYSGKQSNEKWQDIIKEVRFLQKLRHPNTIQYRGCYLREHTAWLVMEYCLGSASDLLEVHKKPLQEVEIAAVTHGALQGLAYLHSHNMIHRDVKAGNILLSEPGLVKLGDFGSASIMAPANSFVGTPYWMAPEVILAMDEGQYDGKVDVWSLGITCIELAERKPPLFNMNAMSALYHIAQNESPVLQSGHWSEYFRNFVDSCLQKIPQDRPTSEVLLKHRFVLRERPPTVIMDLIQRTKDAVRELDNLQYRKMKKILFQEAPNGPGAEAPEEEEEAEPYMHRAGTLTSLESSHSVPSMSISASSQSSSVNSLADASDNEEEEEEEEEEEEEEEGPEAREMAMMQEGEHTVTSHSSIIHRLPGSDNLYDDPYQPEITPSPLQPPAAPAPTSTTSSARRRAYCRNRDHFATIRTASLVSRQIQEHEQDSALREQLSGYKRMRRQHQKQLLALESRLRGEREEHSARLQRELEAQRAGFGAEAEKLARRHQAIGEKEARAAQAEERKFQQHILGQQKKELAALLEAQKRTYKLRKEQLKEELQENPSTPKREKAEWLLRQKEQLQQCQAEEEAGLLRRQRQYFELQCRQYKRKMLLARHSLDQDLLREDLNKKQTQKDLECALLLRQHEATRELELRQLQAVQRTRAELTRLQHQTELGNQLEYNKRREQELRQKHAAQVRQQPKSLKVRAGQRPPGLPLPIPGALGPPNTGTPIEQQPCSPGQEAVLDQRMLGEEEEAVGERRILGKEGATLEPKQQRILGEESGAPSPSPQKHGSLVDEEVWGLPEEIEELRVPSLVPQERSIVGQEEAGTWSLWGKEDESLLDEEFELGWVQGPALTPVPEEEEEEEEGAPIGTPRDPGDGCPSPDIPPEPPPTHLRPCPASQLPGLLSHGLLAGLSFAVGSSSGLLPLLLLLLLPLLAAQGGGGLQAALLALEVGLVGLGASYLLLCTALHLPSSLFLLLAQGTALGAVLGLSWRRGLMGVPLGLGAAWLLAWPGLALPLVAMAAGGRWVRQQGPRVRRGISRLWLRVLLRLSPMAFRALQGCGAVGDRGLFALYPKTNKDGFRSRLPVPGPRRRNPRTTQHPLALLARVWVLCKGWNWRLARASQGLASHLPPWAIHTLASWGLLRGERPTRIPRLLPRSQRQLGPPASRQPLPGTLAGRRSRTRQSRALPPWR

Sequence of Fibroblast growth factor receptor 2 (Homo sapiens) (P21802 22-821 limits assumed): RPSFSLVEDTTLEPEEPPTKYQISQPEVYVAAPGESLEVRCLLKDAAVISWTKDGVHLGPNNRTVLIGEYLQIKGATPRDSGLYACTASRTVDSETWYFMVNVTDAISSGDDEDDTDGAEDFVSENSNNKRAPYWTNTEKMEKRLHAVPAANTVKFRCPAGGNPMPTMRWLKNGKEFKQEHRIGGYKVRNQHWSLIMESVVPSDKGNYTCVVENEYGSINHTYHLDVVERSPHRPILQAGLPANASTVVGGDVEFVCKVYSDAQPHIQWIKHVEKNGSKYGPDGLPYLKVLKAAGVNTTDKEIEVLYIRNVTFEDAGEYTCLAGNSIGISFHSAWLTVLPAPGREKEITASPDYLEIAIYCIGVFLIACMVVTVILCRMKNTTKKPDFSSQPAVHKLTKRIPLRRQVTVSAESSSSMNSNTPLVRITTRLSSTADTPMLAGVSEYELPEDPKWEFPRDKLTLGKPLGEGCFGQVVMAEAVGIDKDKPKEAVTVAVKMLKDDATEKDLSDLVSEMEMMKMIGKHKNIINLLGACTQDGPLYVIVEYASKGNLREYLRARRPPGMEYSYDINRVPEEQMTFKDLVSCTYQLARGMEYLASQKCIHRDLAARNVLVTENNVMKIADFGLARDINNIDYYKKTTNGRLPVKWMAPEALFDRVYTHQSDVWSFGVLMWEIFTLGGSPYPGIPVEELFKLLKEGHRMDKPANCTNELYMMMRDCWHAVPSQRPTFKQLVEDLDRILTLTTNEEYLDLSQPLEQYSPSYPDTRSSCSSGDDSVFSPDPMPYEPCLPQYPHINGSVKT

Structure (SMILES)	Activity [1] [%]	Activity [2] [%]	Activity [3] [%]	Activity [4] [%]
C[C@H](Nc1ncnc2nc[nH]c12)c1cc2cccc(Cl)c2c(=O)n1-c1ccccc1	93.9	93.9	93.9	93.3
CC[C@H](Nc1ncnc2[nH]cnc12)c1nc2cccc(F)c2c(=O)n1-c1ccccc1	93.4	95.8	98	96.7
CC(C)Oc1ccc(-c2nn([C@@H](C)c3oc4ccc(F)cc4c(=O)c3-c3cccc(F)c3)c3ncnc(N)c23)cc1F [UMBRALISIB]	92.9	97.8	95.5	97.3
